This experiment concerns the target T1, human DP2 receptor (Homo sapiens, UniProt Q9Y5Y4).
T1 construct: expressed in transfected cells
T1 sequence (Q9Y5Y4 1-395): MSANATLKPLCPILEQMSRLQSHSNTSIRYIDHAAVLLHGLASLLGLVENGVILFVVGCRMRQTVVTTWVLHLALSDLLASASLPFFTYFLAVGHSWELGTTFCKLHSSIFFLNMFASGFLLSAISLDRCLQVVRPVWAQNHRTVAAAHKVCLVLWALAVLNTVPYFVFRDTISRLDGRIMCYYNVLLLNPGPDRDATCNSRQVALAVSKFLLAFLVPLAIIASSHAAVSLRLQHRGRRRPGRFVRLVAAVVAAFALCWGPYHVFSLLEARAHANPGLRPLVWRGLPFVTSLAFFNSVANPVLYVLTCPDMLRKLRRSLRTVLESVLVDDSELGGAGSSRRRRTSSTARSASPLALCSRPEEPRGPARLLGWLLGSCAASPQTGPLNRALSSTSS
The experiment can be described thus: DP2/CRTH2 binding assay (radioligand binding using [3H]PGD2). As to conditions: [3H]PGD2, membranes of HEK293 cells stably expressing recombinant human DP2; read-out: hDP2 binding. On the procedure: The ability of a compound to bind to the human DP2 receptor is assessed via a radioligand binding assay using [^3H]PGD2. HEK293 cells stably expressing recombinant human DP2 are resuspended in 10 mM Hepes, 7.4 containing 1 mM DTT, lysed and centrifuged at 75,000×g to pellet the membranes. The membranes are resuspended in 10 mM Hepes, 7.4 containing 1 mM DTT and 10% glycerol to approximately 5 mg protein/ml. Membranes (2-10 μg protein/well) are incubated in 96-well plates with 1 nM [^3H]PGD2 and test compound in Assay Buffer (50 mM Hepes, 10 mM MnCl2, 1 mM EDTA, plus or minus 0.2% human serum albumin, pH 7.4) for 60 minutes at room temperature. The reactions are terminated by rapid filtration through Whatman GF/C glass fibre filter plates. The filter plates were pre-soaked in 0.33% polythylenimine for 30 minutes at room temperature then washed in Wash Buffer (50 mM Hepes, 0.5 M NaCl pH 7.4) prior to harvesting. After harvesting, the filter plates are washed 3 times with 1 ml cold Wash Buffer then dried. Scintillant is then added to the plates and the radioactivity retained on the filters is determined on a Packard TopCount (Perkin Elmer). Specific binding is determined as total radioactive binding minus non-specific binding in the presence of 10 μM PGD2. IC50s were determined using GraphPad prism analysis of drug titration curves.

With `CCOc1ccc(CC(=O)O)cc1-c1ccc(C(F)(F)F)cc1CN1C(=O)O[C@H](c2ccccc2)[C@@H]1C` [Compound 1-14, [6-Ethoxy-2′-((4S,5R)-4-methyl-2-oxo-5-phenyl-oxazolidin-3-ylmethyl)-4′-trifluoromethyl-biphenyl-3-yl]-acetic acid], the IC50 was less than 300 nM.
`C[C@H]1[C@@H](c2ccccc2)OC(=O)N1Cc1cc(C(F)(F)F)ccc1-c1cc(CC(=O)O)ccc1F` [Compound 1-9, [6-Fluoro-2′-((4S,5R)-4-methyl-2-oxo-5-phenyl-oxazolidin-3-ylmethyl)-4′-trifluoromethyl-biphenyl-3-yl]-acetic acid]: the IC50 is less than 300 nM.
Turning to `COc1ccc(CC(=O)O)cc1-c1ccc(C(F)(F)F)cc1CN1C(=O)O[C@H](c2cc(C(F)(F)F)cc(C(F)(F)F)c2)[C@@H]1C` [Compound 1-13, {2′-[(4S,5R)-5-(3,5-Bis-trifluoromethyl-phenyl)-4-methyl-2-oxo-oxazolidin-3-ylmethyl]-6-methoxy-4′-trifluoromethyl-biphenyl-3-yl}-acetic acid], the IC50 was less than 300 nM.
For `C[C@H]1[C@@H](c2ccccc2)OC(=O)N1Cc1cc(C(F)(F)F)ccc1-c1cc(CC(=O)O)ccc1OCc1ccccc1` [Compound 1-17, [6-Benzyloxy-2′-((4S,5R)-4-methyl-2-oxo-5-phenyl-oxazolidin-3-ylmethyl)-4′-trifluoromethyl-biphenyl-3-yl]-acetic acid], the IC50 was less than 300 nM.
Next, `COc1ccc(CC(=O)O)cc1-c1ccccc1CN1C(=O)O[C@H](c2ccccc2)[C@@H]1C` [Compound 1-3, [6-Methoxy-2′-((4S,5R)-4-methyl-2-oxo-5-phenyl-oxazolidin-3-ylmethyl)-biphenyl-3-yl]-acetic acid]: 300 to 1000 nM; `COc1ccc(-c2ccc(C(F)(F)F)cc2CN2C(=O)O[C@H](c3ccccc3)[C@@H]2C)cc1CC(=O)O` [Compound 1-8, [4-Methoxy-2′-((4S,5R)-4-methyl-2-oxo-5-phenyl-oxazolidin-3-ylmethyl)-4′-trifluoromethyl-biphenyl-3-yl]-acetic acid]: less than 300 nM.
The same measure for `C[C@H]1[C@@H](c2ccccc2)OC(=O)N1Cc1cc(C(F)(F)F)ccc1-c1cc(CC(=O)O)ccc1OCC(=O)O` [Compound 1-16, [6-Carboxymethoxy-2′-((4S,5R)-4-methyl-2-oxo-5-phenyl-oxazolidin-3-ylmethyl)-4′-trifluoromethyl-biphenyl-3-yl]-acetic acid]: 300 to 1000 nM; for `O=C(O)CCn1c2c(c3ccccc31)C[C@H](NS(=O)(=O)c1ccc(F)cc1)CC2` [Ramatroban, reference compound]: 300 to 1000 nM; for `COc1ccc(C(C)C(=O)O)cc1-c1ccc(C(F)(F)F)cc1CN1C(=O)O[C@H](c2ccccc2)[C@@H]1C` (stereo partly drawn) [Compound 1-12, 2-[6-Methoxy-2′-((4S,5R)-4-methyl-2-oxo-5-phenyl-oxazolidin-3-ylmethyl)-4′-trifluoromethyl-biphenyl-3-yl]-propionic acid]: less than 300 nM.
As to `COc1ccc(CC(=O)O)cc1-c1ccc(C(F)(F)F)cc1CN1CCOC1=O` [Compound 1-1, [6-Methoxy-2′-(2-oxo-oxazolidin-3-ylmethyl)-4′-trifluoromethyl-biphenyl-3-yl]-acetic acid], the IC50 is less than 300 nM.
The same measure for `C[C@H]1[C@@H](c2ccccc2)OC(=O)N1Cc1cc(C(F)(F)F)ccc1-c1cc(CC(=O)O)ccc1OCc1ccc(Cl)cc1` [Compound 1-18, [6-(4-Chloro-benzyloxy)-2′-((4S,5R)-4-methyl-2-oxo-5-phenyl-oxazolidin-3-ylmethyl)-4′-trifluoromethyl-biphenyl-3-yl]-acetic acid]: less than 300 nM.
As to `COc1ccc(CC(=O)O)cc1-c1ccc(C(F)(F)F)cc1CN1C(=O)N(CC(=O)O)C(C)(c2ccccc2)C1=O` (stereo not shown) [Compound 2-2, [2′-(3-Carboxymethyl-4-methyl-2,5-dioxo-4-phenyl-imidazolidin-1-ylmethyl)-6-methoxy-4′-trifluoromethyl-biphenyl-3-yl]-acetic acid], the IC50 was greater than 1000 nM.
Turning to `COc1ccc(-c2cc(CC(=O)O)ccc2OC)c(CN2C(=O)O[C@H](c3ccccc3)[C@@H]2C)c1` [Compound 1-5, [6,4′-Dimethoxy-2′-((4S,5R)-4-methyl-2-oxo-5-phenyl-oxazolidin-3-ylmethyl)-biphenyl-3-yl]-acetic acid], the IC50 is greater than 1000 nM.
`COc1ccc(CC(=O)O)cc1-c1ccc(C(F)(F)F)cc1CN1C(=O)O[C@H](c2ccccc2)[C@@H]1C` [Compound 1-10, [6-Methoxy-2′-((4S,5R)-4-methyl-2-oxo-5-phenyl-oxazolidin-3-ylmethyl)-4′-trifluoromethyl-biphenyl-3-yl]-acetic acid]: the IC50 is less than 300 nM.
For `C[C@H]1[C@@H](c2ccccc2)OC(=O)N1Cc1cc(C(F)(F)F)ccc1-c1ccc(F)c(CC(=O)O)c1` [Compound 1-7, [4-Fluoro-2′-((4S,5R)-4-methyl-2-oxo-5-phenyl-oxazolidin-3-ylmethyl)-4′-trifluoromethyl-biphenyl-3-yl]-acetic acid], the IC50 was in the range of 300 to 1000 nM.
In the case of `COc1ccc(CC(=O)O)cc1-c1ccc(C(F)(F)F)cc1CN1C(=O)O[C@@H](c2ccccc2)[C@H]1C` [Compound 1-11, [6-Methoxy-2′-((4R,5S)-4-methyl-2-oxo-5-phenyl-oxazolidin-3-ylmethyl)-4′-trifluoromethyl-biphenyl-3-yl]-acetic acid], the IC50 was greater than 1000 nM.
For the molecule `COc1ccc(CC(=O)O)cc1-c1ccc(F)cc1CN1C(=O)O[C@H](c2ccccc2)[C@@H]1C` [Compound 1-4, [4′-Fluoro-6-methoxy-2′-((4S,5R)-4-methyl-2-oxo-5-phenyl-oxazolidin-3-ylmethyl)-biphenyl-3-yl]-acetic acid], the IC50 is less than 300 nM.
Take `C[C@H]1[C@@H](c2ccccc2)OC(=O)N1Cc1cc(C(F)(F)F)ccc1-c1cc(CC(=O)O)ccc1-c1ccccc1` [Compound 1-19, [2″-((4S,5R)-4-Methyl-2-oxo-5-phenyl-oxazolidin-3-ylmethyl)-4″-trifluoromethyl-[1,1′;2′,1″]terphenyl-4′-yl]-acetic acid]: the IC50 is less than 300 nM.
For `COc1ccc(CC(=O)O)cc1-c1ccc(C(F)(F)F)cc1CN1C(=O)NC(C)(c2ccccc2)C1=O` (stereo not shown) [Compound 2-1, [6-Methoxy-2′-(4-methyl-2,5-dioxo-4-phenyl-imidazolidin-1-ylmethyl)-4′-trifluoromethyl-biphenyl-3-yl]-acetic acid], the IC50 was greater than 1000 nM.
Regarding `C[C@H]1[C@@H](c2ccccc2)OC(=O)N1Cc1cc(C(F)(F)F)ccc1-c1cc(CC(=O)O)ccc1-c1cccnc1` [Compound 1-20, [2′-((4S,5R)-4-Methyl-2-oxo-5-phenyl-oxazolidin-3-ylmethyl)-6-pyridin-3-yl-4′-trifluoromethyl-biphenyl-3-yl]-acetic acid], the IC50 was less than 300 nM.
Next, `COc1ccc(CC(=O)O)cc1-c1ccc(C(F)(F)F)cc1CN1CCN=C1C` [Compound 3-1, [6-Methoxy-2′-(2-methyl-4,5-dihydro-imidazol-1-ylmethyl)-4′-trifluoromethyl-biphenyl-3-yl]-acetic acid]: greater than 1000 nM; `C[C@H]1[C@@H](c2ccccc2)OC(=O)N1Cc1cc(C(F)(F)F)ccc1-c1cc(CC(=O)O)ccc1-c1cnn(C)c1` [Compound 1-21, [2′-((4S,5R)-4-Methyl-2-oxo-5-phenyl-oxazolidin-3-ylmethyl)-6-(1-methyl-1H-pyrazol-4-yl)-4′-trifluoromethyl-biphenyl-3-yl]-acetic acid]: 300 to 1000 nM; `C[C@H]1[C@@H](c2ccccc2)OC(=O)N1Cc1cc(C(F)(F)F)ccc1-c1cc(CC(=O)O)ccc1OCC1CC1` [Compound 1-15, [6-Cyclopropylmethoxy-2′-((4S,5R)-4-methyl-2-oxo-5-phenyl-oxazolidin-3-ylmethyl)-4′-trifluoromethyl-biphenyl-3-yl]-acetic acid]: less than 300 nM.
Take `C[C@H]1[C@@H](c2ccccc2)OC(=O)N1Cc1cc(C(F)(F)F)ccc1-c1cccc(CC(=O)O)c1` [Compound 1-6, [2′-((4S,5R)-4-Methyl-2-oxo-5-phenyl-oxazolidin-3-ylmethyl)-4′-trifluoromethyl-biphenyl-3-yl]-acetic acid]: the IC50 was 300 to 1000 nM.
For the molecule `COc1ccc(-c2ccc(C(F)(F)F)cc2CN2CCOC2=O)cc1CC(=O)O` [Compound 1-2, [4-Methoxy-2′-(2-oxo-oxazolidin-3-ylmethyl)-4′-trifluoromethyl-biphenyl-3-yl]-acetic acid], the IC50 was less than 300 nM.
